Values after ≈ are worked out from the molar mass of the structure shown. Like-named read-outs stand apart in the source and are kept apart here.
Legend:
[1] = in vivo; cited from earlier work
Strep. pneumococci = settings: cited from earlier work
[2] = Hydrochlorothiazide 50 mg bio-study, IR versus GRD, urinary drug excretion, urine output and side effects, fasting subjects; assay type: in vivo; settings: both sexes, human, oral, HCTZ 50 mg, read-out: Elimination half-life (t1/2) (converted)
Description: Two formulations for hydrochlorothiazide (an immediate release formulation (IR) and a gastric retention device (GRD)) containing sustained release formulations (SR) were administered in the bio-study (bioavailability study). A commercial tablet containing 50 mg of HCTZ was used as an IR control, and spray-coated beads equivalent to 50 mg of HCTZ were formulated for SR in the lab. The process of SR formulation is described above. Bio-study was performed to evaluate the bioavailability as well as pharmacodynamics of HCTZ from a GRD compared to those from an IR.
Monitoring concentrations of hydrochlorothiazide in the urine of healthy adult volunteers allowed comparison of the relative bioavailability of hydrochlorothiazide from the GRD formulation and from a conventional tablet. Participation involved at least two days for each treatment with at least 72-hours washout period between doses. An IR was given once and the GRD was repeated twice to test the reproducibility of the new dosage form, GRD. A 50 mg dose of was chosen for the study because it was in the range of the recommended dose from the PDR (Physician's Desk References) and it produced concentrations high enough to make HPLC analysis efficient. Six subjects participated in the study, 4 healthy males and 2 healthy females. […] The volume of urine collected was measured in order to calculate total amount of drug recovered. […]

Compound	half-life [1]	MIC (Strep. pneumococci)	half-life [2]
CC1(C)S[C@@H]2[C@H](NC(=O)[C@H](N)c3ccc(O)cc3)C(=O)N2[C@H]1C(=O)O [Amoxicillin]	about 1 hour	0.02 µg/mL (≈ 0.0547 µM)	–
NS(=O)(=O)c1cc2c(cc1Cl)NCNS2(=O)=O [hydrochlorothiazide]	–	–	~7 h
